Measured values: patent publication US20040097587A1, “Compositions and methods of treatment of ulcerating diseases, burns, and related conditions” (priority 2003, published 2004)

System: venous ulcer
Assay: Case of a person with venous ulcer and related conditions treated with oral isotretinoin
Assay type: in vivo, human
Conditions: approximately 80 milligrams per day for two months
Text: Preferred unit dosage formulations are those containing a daily dose or unit, daily sub-dose, or an appropriate fraction thereof, of the administered ingredient. […] Acad. of Dermatol, 45, 462-465, which is herein incorporated by reference.

## CC1=C(/C=C/C(C)=C/C=C/C(C)=C\C(=O)O)C(C)(C)CCC1 [isotretinoin, 13-cis-retinoic acid]
Person having venous ulcer and related conditions for five months
  overall clinical outcome of venous ulcer and related conditions: significant improvement
person
  lesions: improved
  venous ulcer healing: healed
  vessel prominence: significantly decreased
